From BindingDB's records for doi:10.1021/np960678l (1997)

Target: T1, 5-hydroxytryptamine receptor 1A (Homo sapiens, UniProt P08908)
T1 sequence (P08908 whole entry): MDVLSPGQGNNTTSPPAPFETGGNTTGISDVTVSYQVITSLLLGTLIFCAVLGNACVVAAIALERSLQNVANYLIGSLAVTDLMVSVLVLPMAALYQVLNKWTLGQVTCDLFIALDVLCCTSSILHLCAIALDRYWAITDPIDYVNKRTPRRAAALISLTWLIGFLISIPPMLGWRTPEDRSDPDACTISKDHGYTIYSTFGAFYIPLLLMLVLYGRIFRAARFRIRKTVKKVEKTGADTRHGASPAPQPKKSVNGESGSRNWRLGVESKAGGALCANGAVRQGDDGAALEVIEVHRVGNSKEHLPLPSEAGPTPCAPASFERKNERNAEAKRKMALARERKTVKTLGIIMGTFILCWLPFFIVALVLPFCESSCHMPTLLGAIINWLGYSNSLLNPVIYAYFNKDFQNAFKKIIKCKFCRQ
Test: Displacement of [3H]8-OH-DPAT from 5HT1A receptor by vacuum filtration

COc1cc(-c2oc3cc(O)cc(=O)c-3c(O)c2O[C@@H]2O[C@H](CO)[C@H](O)[C@H](O)[C@H]2O)ccc1O [isohamnetin 3-O-galactoside]
Ki: > 100 µM
